Results: patent US9284333B2, “Fused pyrroledicarboxamides and their use as pharmaceuticals” (SANOFI, priority 2012, dated 2016)

target: Human TASK-1 channels (Homo sapiens (Human), UniProt O14649); test: Determination of the activity on the TASK-1 channel in Xenopus oocytes (two-microelectrode voltage clamp); assay type: cell-based; settings: compound concentration 5 μM
Method in brief: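 Xenopus oocytes were injected with human TASK-1 cRNA and recorded two days later by two-microelectrode voltage clamp, holding at −90 mV with 500 ms steps to 40 mV. Superfusion used ND96, pH 7.4, at room temperature, with rising compound concentrations; percentage inhibition of control current was fitted to a dose-response curve for IC50.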

Chain of Human TASK-1 channels (O14649 whole entry, the tested form may be a part): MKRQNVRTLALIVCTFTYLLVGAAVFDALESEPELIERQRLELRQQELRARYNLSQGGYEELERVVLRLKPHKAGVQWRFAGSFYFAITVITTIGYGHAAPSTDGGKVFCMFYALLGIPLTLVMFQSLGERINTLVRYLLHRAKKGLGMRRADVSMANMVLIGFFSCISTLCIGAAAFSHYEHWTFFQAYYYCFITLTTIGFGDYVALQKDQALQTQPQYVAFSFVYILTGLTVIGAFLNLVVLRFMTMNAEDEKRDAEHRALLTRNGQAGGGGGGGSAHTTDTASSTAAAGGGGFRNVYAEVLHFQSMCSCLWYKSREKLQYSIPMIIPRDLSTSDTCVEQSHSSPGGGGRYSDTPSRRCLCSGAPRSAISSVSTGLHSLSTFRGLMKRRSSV

| Molecule | inhibition at 5 µM |
| --- | --- |
| CC[C@@H](NC(=O)c1cc(C(=O)N2CCC[C@@H]2C)c2n1CCOC2)c1ccc(C(F)(F)F)nc1 [16nk, 8-((S)-2-Methyl-pyrrolidine-1-carbonyl)-3,4-dihydro-1H-pyrrolo[2,1-c][1,4]oxazine-6-carboxylic acid [(R)-1-(6-trifluoromethyl-pyridin-3-yl)-propyl]-amide] | 62% |
| CCN(Cc1nnn(C)n1)C(=O)c1cc(C(=O)N[C@H](C)c2ccc(F)cc2)n2c1COCC2 [16rt, 3,4-Dihydro-1H-pyrrolo[2,1-c][1,4]oxazine-6,8-dicarboxylic acid 8-[ethyl-(2-methyl-2H-tetrazol-5-ylmethyl)-amide] 6-{[(R)-1-(4-fluoro-phenyl)-ethyl]-amide}] | 72% |
| CC[C@H](NC(=O)c1cc(C(=O)N2CCC[C@@H]2C)n2c1COCC2)c1cnc(C(F)(F)F)cc1Cl [16bs, 6-((S)-2-Methyl-pyrrolidine-1-carbonyl)-3,4-dihydro-1H-pyrrolo[2,1-c][1,4]oxazine-8-carboxylic acid [(S)-1-(4-chloro-6-trifluoromethyl-pyridin-3-yl)-propyl]-amide] | 80% |
| CC[C@@H](NC(=O)c1cc(C(=O)NCC2(c3ccccc3)CCCC2)n2c1CCCC2)c1ccccc1 [16ng, 5,6,7,8-Tetrahydro-indolizine-1,3-dicarboxylic acid 3-[(1-phenyl-cyclopentylmethyl)-amide] 1-[((R)-1-phenyl-propyl)-amide]] | 55% |
| CC[C@@H](NC(=O)c1cc(C(=O)N2CCCCC2C)n2c1COCC2)c1ccc(C(F)(F)F)nc1 (stereo partly drawn) [16pc, 6-(2-Methyl-piperidine-1-carbonyl)-3,4-dihydro-1H-pyrrolo[2,1-c][1,4]oxazine-8-carboxylic acid [(R)-1-(6-trifluoromethyl-pyridin-3-yl)-propyl]-amide] | 53% |

same assay, conditions: human TASK-1 expressed in Xenopus oocytes, room temperature; read-out: IC50 value for TASK-1 inhibition

| Molecule | IC50 |
| --- | --- |
| CC[C@@H](NC(=O)c1cc(C(=O)NC(C)c2cccc(S(N)(=O)=O)c2)n2c1COCC2)c1ccccc1 (stereo partly drawn) [16ip, 3,4-dihydro-1H-pyrrolo[2,1-c][1,4]oxazine-6,8-dicarboxylic acid 8-[((R)-1-phenyl-propyl)-amide] 6-{[1-(3-sulfamoyl-phenyl)ethyl]-amide}] | 1800 nM |
| CC[C@@H](NC(=O)c1cc(C(=O)N[C@H](C)C2CC2)n2c1CCCC2)c1ccccc1 [16mw, 5,6,7,8-Tetrahydro-indolizine-1,3-dicarboxylic acid 3-[((R)-1-cyclopropyl-ethyl)-amide] 1-[((R)-1-phenyl-propyl)-amide]] | 74 nM |
| CC[C@@H](NC(=O)c1cc(C(=O)N2Cc3ccccc3C2)n2c1COCC2)c1ccccc1 [16ih, 6-(1,3-Dihydro-isoindole-2-carbonyl)-3,4-dihydro-1H-pyrrolo[2,1-c][1,4]oxazine-8-carboxylic acid ((R)-1-phenyl-propyl)-amide] | 200 nM |
| CC(C)[C@@H](NC(=O)c1cc(C(=O)N2CCC[C@@H]2C)n2c1COCC2)c1ccc(F)cc1 [16p, 6-((S)-2-Methyl-pyrrolidine-1-carbonyl)-3,4-dihydro-1H-pyrrolo[2,1-c][1,4]oxazine-8-carboxylic acid [(R)-1-(4-fluoro-phenyl)-2-methyl-propyl]-amide] | 380 nM |
| C[C@@H](NC(=O)c1cc(C(=O)N2CCC[C@@H]2C)n2c1CCCC2)c1ccc(Cl)cc1 [16ly, 3-((S)-2-Methyl-pyrrolidine-1-carbonyl)-5,6,7,8-tetrahydro-indolizine-1-carboxylic acid [(R)-1-(4-chloro-phenyl)-ethyl]-amide] | 92 nM |
| CC[C@@H](NC(=O)c1cc(C(=O)NCc2c(C)noc2C)c2n1CCOC2)c1ccccc1 [16jl, 3,4-Dihydro-1H-pyrrolo[2,1-c][1,4]oxazine-6,8-dicarboxylic acid 8-[(3,5-dimethyl-isoxazol-4-ylmethyl)-amide] 6-[((R)-1-phenyl-propyl)-amide]] | 3200 nM |
| CC[C@@H](NC(=O)c1cc(C(=O)NCC(=O)OC(C)C)n2c1COCC2)c1ccccc1 [16iw, {[8-((R)-1-Phenyl-propylcarbamoyl)-3,4-dihydro-1H-pyrrolo[2,1-c][1,4]oxazine-6-carbonyl]-amino}-acetic acid isopropyl ester] | 620 nM |
| C[C@@H](NC(=O)c1cc(C(=O)N[C@H](C)c2ccc(F)cc2)n2c1COCC2)c1cccc(F)c1 [16do, 3,4-Dihydro-1H-pyrrolo[2,1-c][1,4]oxazine-6,8-dicarboxylic acid 6-{[(R)-1-(4-fluoro-phenyl)-ethyl]-amide} 8-{[(R)-1-(3-fluoro-phenyl)-ethyl]-amide}] | 190 nM |
| CC[C@@H](NC(=O)c1cc(C(=O)N(C)CC2CCOCC2)n2c1COCC2)c1ccccc1 [16gd, 3,4-Dihydro-1H-pyrrolo[2,1-c][1,4]oxazine-6,8-dicarboxylic acid 6-[methyl-(tetrahydro-pyran-4-ylmethyl)-amide] 8-[((R)-1-phenyl-propyl)-amide]] | 5400 nM |
| CC[C@@H](NC(=O)c1cc(C(=O)N2CCC[C@@H]2C)n2c1COCC2)c1ccc(C(F)(F)F)s1 [16cf, 6-((S)-2-Methyl-pyrrolidine-1-carbonyl)-3,4-dihydro-1H-pyrrolo[2,1-c][1,4]oxazine-8-carboxylic acid [(R)-1-(5-trifluoromethyl-thiophen-2-yl)-propyl]-amide] | 21 nM |
| CC[C@@H](NC(=O)c1cc(C(=O)NC(C)c2nnn(C)n2)n2c1COCC2)c1ccccc1 (stereo partly drawn) [16rn, 3,4-Dihydro-1H-pyrrolo[2,1-c][1,4]oxazine-6,8-dicarboxylic acid 6-{[1-(2-methyl-2H-tetrazol-5-yl)-ethyl]-amide} 8-[((R)-1-phenyl-propyl)-amide]] | 180 nM |
| CC[C@@H](NC(=O)c1cc(C(=O)N[C@@H](C)C2CC2)n2c1CCCC2)c1ccccc1 [16mz, 5,6,7,8-Tetrahydro-indolizine-1,3-dicarboxylic acid 3-[((S)-1-cyclopropyl-ethyl)-amide] 1-[((R)-1-phenyl-propyl)-amide]] | 42 nM |
| CCOC(=O)C[C@H]1CCCN1C(=O)c1cc(C(=O)N[C@H](C)c2ccc(F)cc2)n2c1COCC2 [16dl, ((R)-1-{6-[(R)-1-(4-Fluoro-phenyl)-ethylcarbamoyl]-3,4-dihydro-1H-pyrrolo[2,1-c][1,4]oxazine-8-carbonyl}-pyrrolidin-2-yl)-acetic acid ethyl ester] | 62 nM |
| CC[C@@H](NC(=O)c1cc(C(=O)N2CCCCCC2)n2c1CCCC2)c1ccccc1 [16mr, 3-(Azepane-1-carbonyl)-5,6,7,8-tetrahydro-indolizine-1-carboxylic acid ((R)-1-phenyl-propyl)-amide] | 200 nM |
| CC[C@@H](NC(=O)c1cc(C(=O)NC(C)c2nnnn2C)n2c1COCC2)c1ccccc1 (stereo partly drawn) [16ro, 3,4-dihydro-1H-pyrrolo[2,1-c][1,4]oxazine-6,8-dicarboxylic acid 6-{[1-(1-methyl-1H-tetrazol-5-yl)-ethyl]-amide} 8-[((R)-1-phenyl-propyl)-amide]] | 2800 nM |
| CC[C@@H](NC(=O)c1cc(C(=O)NCc2cnccn2)n2c1COCC2)c1ccc(F)cc1Cl [16no, 3,4-Dihydro-1H-pyrrolo[2,1-c][1,4]oxazine-6,8-dicarboxylic acid 8-{[(R)-1-(2-chloro-4-fluoro-phenyl)-propyl]-amide} 6-[(pyrazin-2-ylmethyl)-amide]] | 170 nM |
| CC[C@@H](NC(=O)c1cc(C(=O)N[C@H](C)c2ccc(F)cc2)c2n1CSC2)c1ccccc1 [16kw, 1H-Pyrrolo[1,2-c]thiazole-5,7-dicarboxylic acid 7-{[(R)-1-(4-fluoro-phenyl)-ethyl]-amide} 5-[((R)-1-phenyl-propyl)-amide]] | 95 nM |
| CC[C@@H](NC(=O)c1cc(C(=O)N2CCC[C@@H]2C)n2c1COCC2)c1ccc(C(F)(F)F)c(F)c1 [16bm, 6-((S)-2-Methyl-pyrrolidine-1-carbonyl)-3,4-dihydro-1H-pyrrolo[2,1-c][1,4]oxazine-8-carboxylic acid [(R)-1-(3-fluoro-4-trifluoromethyl-phenyl)-propyl]-amide] | 93 nM |
| CC[C@@H]1CCCN1C(=O)c1cc(C(=O)N[C@H](CC)c2ccccc2)c2n1CCOC2 (racemic) [16fd, 6-((R)-2-Ethyl-pyrrolidine-1-carbonyl)-3,4-dihydro-1H-pyrrolo[2,1-c][1,4]oxazine-8-carboxylic acid ((R)-1-phenyl-propyl)-amide] | 730 nM |
| CC[C@@H](NC(=O)c1cc(C(=O)NCc2ncco2)n2c1COCC2)c1ccccc1 [16ha, 3,4-Dihydro-1H-pyrrolo[2,1-c][1,4]oxazine-6,8-dicarboxylic acid 6-[(oxazol-2-ylmethyl)-amide] 8-[((R)-1-phenyl-propyl)-amide]] | 350 nM |
| 5,6,7,8-Tetrahydro-indolizine-1,3-dicarboxylic acid 3-[(5-fluoro-pyridin-3-ylmethyl)-amide] 1-[((R)-1-phenyl-propyl)-amide] [16nb] | 460 nM |
| CC[C@@H](NC(=O)c1cc(C(=O)NCC2CCCC2)n2c1CCCC2)c1ccccc1 [16my, 5,6,7,8-Tetrahydro-indolizine-1,3-dicarboxylic acid 3-cyclopentylmethyl-amide 1-[((R)-1-phenyl-propyl)-amide]] | 120 nM |
| C[C@H]1CCCN1C(=O)c1cc(C(=O)NCc2c(F)cccc2Cl)c2n1CCOC2 [16nu, 6-((S)-2-Methyl-pyrrolidine-1-carbonyl)-3,4-dihydro-1H-pyrrolo[2,1-c][1,4]oxazine-8-carboxylic acid 2-chloro-6-fluoro-benzylamide] | 150 nM |
| CCC(NC(=O)c1cc(C(=O)N2CCC[C@@H]2C)n2c1COCC2)c1ccc(C(C)(F)F)cc1 (stereo partly drawn) [16bc, 6-((S)-2-Methyl-pyrrolidine-1-carbonyl)-3,4-dihydro-1H-pyrrolo[2,1-c][1,4]oxazine-8-carboxylic acid {1-[4-(1,1-difluoro-ethyl)-phenyl]-propyl}-amide] | 550 nM |
| CC[C@@H](NC(=O)c1cc(C(=O)N[C@H](CC)c2cccc(OC)n2)n2c1COCC2)c1ccccc1 [16ic, 3,4-dihydro-1H-pyrrolo[2,1-c][1,4]oxazine-6,8-dicarboxylic acid 6-{[(R)-1-(6-methoxy-pyridin-2-yl)-propyl]-amide} 8-[((R)-1-phenyl-propyl)-amide]] | 40 nM |
